The results in this text go back to US9163008B2, “Pyrimidines as sodium channel blockers” (Purdue Pharma, L.P., priority 2011, dated 2015).

Where two headings read alike, the source gives them in different places.

For experiment [1], the target named is hNav1.7 (Homo sapiens (Human), UniProt Q15858). Description: Electrophysiology (EP) whole-cell patch clamp assay. The following applies: for Ki: read-out: Nav1.7 Activity EP assay Ki; for Kd: resting block dissociation constant, read-out: Nav1.7 Activity EP assay Kr. Type of experiment: cell-based. As to the method: The hNav1.7 expressing HEK-293 cells were plated on 35 mm culture dishes pre-coated with poly-D-lysine in standard DMEM culture media (Mediatech, Inc., Herndon, Va.) and incubated in a 5% CO2 incubator at 37° C. Cultured cells were used approximately 12-48 h after plating.
Chain of hNav1.7 (Q15858 other isoform, or with tags, fused parts or gaps): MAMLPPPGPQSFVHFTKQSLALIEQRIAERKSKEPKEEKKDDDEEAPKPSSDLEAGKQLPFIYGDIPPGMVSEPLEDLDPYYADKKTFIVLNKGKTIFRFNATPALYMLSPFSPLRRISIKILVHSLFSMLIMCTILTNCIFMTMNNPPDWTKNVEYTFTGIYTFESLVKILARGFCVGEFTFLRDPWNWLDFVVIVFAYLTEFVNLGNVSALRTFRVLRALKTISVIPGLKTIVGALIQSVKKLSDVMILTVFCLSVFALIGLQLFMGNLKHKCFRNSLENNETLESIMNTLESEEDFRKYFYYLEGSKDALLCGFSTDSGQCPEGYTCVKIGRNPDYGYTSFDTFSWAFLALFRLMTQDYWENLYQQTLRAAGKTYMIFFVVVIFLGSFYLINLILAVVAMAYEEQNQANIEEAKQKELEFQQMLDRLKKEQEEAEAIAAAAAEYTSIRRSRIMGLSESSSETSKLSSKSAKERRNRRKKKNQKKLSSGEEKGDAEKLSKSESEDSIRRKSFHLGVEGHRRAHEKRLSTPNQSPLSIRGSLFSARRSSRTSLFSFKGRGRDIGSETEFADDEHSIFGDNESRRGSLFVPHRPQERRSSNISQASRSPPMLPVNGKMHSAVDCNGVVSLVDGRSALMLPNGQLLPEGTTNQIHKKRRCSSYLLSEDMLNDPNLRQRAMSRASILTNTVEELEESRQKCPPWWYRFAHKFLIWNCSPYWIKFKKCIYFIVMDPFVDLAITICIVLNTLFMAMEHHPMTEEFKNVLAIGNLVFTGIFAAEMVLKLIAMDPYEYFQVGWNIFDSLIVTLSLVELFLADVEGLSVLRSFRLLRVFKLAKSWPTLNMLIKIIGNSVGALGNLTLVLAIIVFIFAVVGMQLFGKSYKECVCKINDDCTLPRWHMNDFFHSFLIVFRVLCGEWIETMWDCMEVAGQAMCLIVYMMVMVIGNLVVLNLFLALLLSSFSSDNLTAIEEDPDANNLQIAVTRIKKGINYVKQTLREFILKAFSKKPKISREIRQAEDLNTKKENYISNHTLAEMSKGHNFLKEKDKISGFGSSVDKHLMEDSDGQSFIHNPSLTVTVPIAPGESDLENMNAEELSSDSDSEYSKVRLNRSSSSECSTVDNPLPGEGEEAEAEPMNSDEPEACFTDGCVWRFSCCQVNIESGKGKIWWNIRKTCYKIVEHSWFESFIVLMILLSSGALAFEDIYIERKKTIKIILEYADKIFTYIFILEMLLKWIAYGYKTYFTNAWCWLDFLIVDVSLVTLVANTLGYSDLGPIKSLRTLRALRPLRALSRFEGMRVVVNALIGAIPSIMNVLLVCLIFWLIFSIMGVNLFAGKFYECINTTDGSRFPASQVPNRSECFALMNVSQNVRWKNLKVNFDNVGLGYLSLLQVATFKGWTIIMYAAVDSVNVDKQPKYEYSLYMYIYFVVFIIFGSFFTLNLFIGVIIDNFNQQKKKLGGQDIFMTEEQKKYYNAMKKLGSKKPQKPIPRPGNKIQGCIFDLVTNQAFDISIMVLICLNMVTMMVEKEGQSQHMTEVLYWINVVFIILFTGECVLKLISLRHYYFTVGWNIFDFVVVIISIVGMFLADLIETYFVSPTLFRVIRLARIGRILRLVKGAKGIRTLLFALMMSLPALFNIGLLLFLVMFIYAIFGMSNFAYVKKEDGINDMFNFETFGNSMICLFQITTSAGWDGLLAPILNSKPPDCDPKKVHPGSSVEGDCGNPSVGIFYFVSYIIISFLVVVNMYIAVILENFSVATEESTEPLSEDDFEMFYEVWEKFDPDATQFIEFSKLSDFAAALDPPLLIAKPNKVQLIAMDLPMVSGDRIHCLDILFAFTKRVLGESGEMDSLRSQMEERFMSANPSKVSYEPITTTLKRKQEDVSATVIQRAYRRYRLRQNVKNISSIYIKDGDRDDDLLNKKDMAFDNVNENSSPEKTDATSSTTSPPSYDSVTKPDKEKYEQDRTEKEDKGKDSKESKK
On the day of experimentation, the 35 mm dish was placed on the stage of an inverted microscope equipped with a perfusion system that continuously perfuses the culture dish with fresh recording media. A gravity driven superfusion system was used to apply test solutions directly to the cell under evaluation. This system consists of an array of glass pipette glass connected to a motorized horizontal translator. The outlet of the shooter was positioned approximately 100 μm from the cell of interest.
Gigaseals were formed and the whole-cell configuration was established in voltage clamp mode, and membrane currents generated by hNav1.7 were recorded in gap-free mode. […] Signals were sampled at 50 kHz and low pass filtered at 3 kHz.
To determine a membrane potential at which the majority of channels are in the resting state, a standard steady-state inactivation (SSIN) protocol was run using 100 ms prepulses×10 mV depolarizing steps. The holding potential for testing resting block (Vh1) was 20 mV more hyperpolarized than the first potential where inactivation is observed with the inactivation protocol.
From this holding potential a standard I-V protocol was run to determine the potential at which the maximal current (Imax) was elicited. This potential was the test potential (Vt).
The fractional response was calculated as follows: FR=I(after drug)/I(control),
where I is the peak current amplitude and was used for estimating resting block dissociation constant, Kr: Kr=[drug]*{FR/(1−FR)},
To assess the block of inactivated channels the holding potential was depolarized such that 20-50% of the current amplitude was reduced when pulsed to the same Vt as above. The magnitude of this depolarization depends upon the initial current amplitude and the rate of current loss due to slow inactivation. This was the second holding potential (Vh2). The current reduction was recorded to determine the fraction of available channels at this potential (h). h=I@Vh2/Imax.
At this membrane voltage a proportion of channels are in the inactivated state, and thus inhibition by a blocker includes interaction with both resting and inactivated channels.
To determine the potency of the test compound on inactivated channels, a series of currents were elicited by 10 ms voltage steps from Vh2 to Vt every 10-15 seconds. After establishing a stable baseline, the low concentration of the compound was applied. Multiple cumulative concentrations may have to be applied to identify a concentration that will block between 40-60% of the current. Washout was attempted to re-establish baseline. Fractional responses were measured with respect to a projected baseline to determine Kapp. Kapp=[drug]*{FR/(1−FR)},
This Kapp value, along with the calculated Kr and h values, were used to calculate the affinity of the compound for the inactivated channels (Ki) using the following equation: Ki=(1−h)/((1/Kapp)−(h/Kr)).
Vehicle solution used to establish base line was also contacting 0.3% DMSO.
Data was analyzed off-line using Clampfit software (pClamp, v. 8; Axon Instruments) and graphed using GraphPad Prizm (v. 4.0 or higher) software.
A general note: In patch-clamp work, channel activity is measured electrically.

Experiment [2] concerns the target human Nav1.7 (Homo sapiens (Human), UniProt Q15858). Description: FLIPR sodium dye assay (CoroNa Green) with KCl and test article pre-incubation. Type of experiment: cell-based. Particulars: read-out: Nav1.7 Activity FLIPR assay IC50.
In experiment [3] the test system is SNL-induced mechanical hyperalgesia. Nature of the experiment: SNL-induced mechanical hyperalgesia model (paw pressure test). Type of experiment: in vivo, rat. Particulars: rats, dosed orally at 100 mg/kg, vehicle 0.5% methyl cellulose, one hour before testing. Here is the method: In the Chung model, the spinal nerve ligation (SNL) model of neuropathic pain is used to produce mechanical hyperalgesia, thermal hyperalgesia, and tactile allodynia in rats. Surgery is performed under isoflurane/O2 inhalation anesthesia. Following induction of anesthesia a 3 cm incision is made and the left paraspinal muscles are separated from the spinous process at the L4-S2 levels. The L6 transverse process is carefully removed with a pair of small rongeurs to identify visually the L4-L6 spinal nerves. The left L5 (or L5 and L6) spinal nerve(s) is (are) isolated and tightly ligated with silk thread. […] The animals can also be assessed for response to noxious thermal stimuli or for tactile allodynia, as described below. […] Sensitivity to noxious mechanical stimuli was measured in animals using the paw pressure test to assess mechanical hyperalgesia. In rats, hind paw withdrawal thresholds (“PWT”), measured in grams, in response to a noxious mechanical stimulus were determined using an analgesymeter (Model 7200, commercially available from Ugo Basile of Italy), as described in Stein (Biochemistry & Behavior 31: 451-455 (1988)). […] PWT was determined once for each rat at each time point. PWT can be measured only in the injured paw, or in both the injured and non-injured paw. […]

[4] abbreviates: affinity for inactivated channels, hNav1.7 HEK-293.
[5] abbreviates: recombinant human Nav1.7 in HEK293, veratridine and scorpion venom agonists.

Chain of human Nav1.7 (Q15858 other isoform, or with tags, fused parts or gaps): as above

With `NC(=O)c1cc(N2CCC[C@H]2C(N)=O)nc(-c2ccc(Oc3ccc(F)cc3)cc2)n1` [Cpd No. 5, (S)-6-(2-carbamoylpyrrolidin-1-yl)-2-(4-(4-fluorophenoxy)phenyl)pyrimidine-4-carboxamide], the Ki in experiment [1] (setting [4]) worked out at 78 nM. Moreover, the Kd in experiment [1] (hNav1.7 HEK-293) turned out to be 7950 nM. In addition, the IC50 in experiment [2] worked out at 260 nM.
In the case of `C[C@H](Nc1cc(C(N)=O)nc(-c2ccc(Oc3ccc(C(F)(F)F)cn3)cc2)n1)C(N)=O` [Cpd No. 13, (S)-6-((1-amino-1-oxopropan-2-yl)amino)-2-(4-((5-(trifluoromethyl)pyridin-2-yl)oxy)phenyl)pyrimidine-4-carboxamide], the Ki in experiment [1] (setting [4]) amounted to 420 nM. For the same compound, the Kd in experiment [1] (hNav1.7 HEK-293) turned out to be 169000 nM. The IC50 in experiment [2] amounted to 990 nM.
Consider `C[C@@H](Nc1cc(C(N)=O)nc(-c2ccc(Oc3ccc(F)cc3)cc2)n1)C(N)=O` [Cpd No. 21, (R)-6-((1-amino-1-oxopropan-2-yl)amino)-2-(4-(4-fluorophenoxy)phenyl)pyrimidine-4-carboxamide], for which the Ki in experiment [1] was 230 nM. Also, the Kd in experiment [1] (hNav1.7 HEK-293) amounted to 7250 nM. For the same compound, the IC50 in experiment [2] stood at 600 nM.
Regarding `C[C@H](Nc1cc(C(=O)O)nc(-c2ccc(Oc3ccc(F)cc3)cc2)n1)C(=O)O` [Cpd No. 40, (S)-6-((1-carboxyethyl)amino)-2-(4-(4-fluorophenoxy)phenyl)pyrimidine-4-carboxylic acid], the Ki in experiment [1] (setting [4]) is 41000 nM. In addition, in experiment [1] (hNav1.7 HEK-293), the Kd was 110000 nM. The IC50 in experiment [2] (setting [5]) was more than 20000 nM.
For `C[C@H](Nc1cc(C(=O)O)nc(-c2ccc(Oc3ccc(F)cc3)cc2)n1)C(N)=O` [Cpd No. 35, (S)-6-((1-amino-1-oxopropan-2-yl)amino)-2-(4-(4-fluorophenoxy)phenyl)pyrimidine-4-carboxylic acid], the Ki in experiment [1] (setting [4]) came out at 20500 nM. The Kd in experiment [1] (hNav1.7 HEK-293) was determined as 102000 nM. The IC50 in experiment [2] (setting [5]) is more than 20000 nM.
As for `C[C@H](Nc1cc(C(N)=O)nc(-c2ccc(Oc3ccc(Cl)cc3F)cc2)n1)C(N)=O` [Cpd No. 64, (S)-6-((1-amino-1-oxopropan-2-yl)amino)-2-(4-(4-chloro-2-fluorophenoxy)phenyl)pyrimidine-4-carboxamide], the Ki in experiment [1] (setting [4]) is 16 nM. The Kd in experiment [1] (hNav1.7 HEK-293) is 730 nM. Further, the IC50 in experiment [2] turned out to be 180 nM.
In the case of `C[C@H](Nc1cc(C(N)=O)nc(-c2ccc(Oc3ccc(F)cc3)cc2)n1)C(N)=O` [Cpd No. 1, (S)-6-((1-amino-1-oxopropan-2-yl)amino)-2-(4-(4-fluorophenoxy)phenyl)pyrimidine-4-carboxamide], the Ki in experiment [1] is 57 nM. Also, the Kd in experiment [1] (hNav1.7 HEK-293) turned out to be 4220 nM. Further, the IC50 in experiment [2] worked out at 420 nM.
Regarding `NC(=O)c1cc(N[C@H]2CCNC2=O)nc(-c2ccc(Oc3ccc(C(F)(F)F)cn3)cc2)n1` [compound 99, (S)-6-((2-oxopyrrolidin-3-yl)amino)-2-(4-((5-(trifluoromethyl)pyridin-2-yl)oxy)phenyl)pyrimidine-4-carboxamide], in experiment [3], the “SNL-induced mechanical hyperalgesia (paw withdrawal threshold)” value is “reduced SNL-induced mechanical hyperalgesia”. Moreover, in experiment [1] (setting [4]), the Ki worked out at 83 nM. In addition, the Kd in experiment [1] (hNav1.7 HEK-293) came to 4650 nM. For the same compound, the IC50 in experiment [2] turned out to be 570 nM.
As for `C[C@H](Nc1cc(C(N)=O)nc(-c2ccc(Oc3ccc(Cl)cn3)cc2)n1)C(N)=O` [Cpd No. 63, (S)-6-((1-amino-1-oxopropan-2-yl)amino)-2-(4-((5-chloropyridine-2-yl)oxy)phenyl)pyrimidine-4-carboxamide], the Ki in experiment [1] (setting [4]) worked out at 600 nM. Besides, the Kd in experiment [1] (hNav1.7 HEK-293) came out at 28000 nM. The IC50 in experiment [2] was found to be 790 nM.
`C[C@H](Nc1cc(C(N)=O)nc(-c2ccc(Oc3ccc(OC(F)(F)F)cc3)cc2)n1)C(N)=O` [Cpd No. 84, (S)-6-((1-amino-1-oxopropan-2-yl)amino)-2-(4-(4-(trifluoromethoxy)phenoxy)phenyl)pyrimidine-4-carboxamide]: the “SNL-induced mechanical hyperalgesia (paw withdrawal threshold)” value in experiment [3] was “reduced SNL-induced mechanical hyperalgesia”.

A word on the IC50: it is the concentration that inhibits the measured activity by half.
